Measurements published in patent publication US20090264401A1, “SUBSTITUTED PYRIMIDIN-5-CARBOXAMIDES 281” (AstraZeneca AB, priority 2008, published 2009).

Biological target: T1, human 11βHSD1 enzyme (Homo sapiens, UniProt P28845)
T1 construct: baculovirus expressed N terminal 6-His tagged full length human 11βHSD1 enzyme; 6-His (N); made in house
Test: 11βHSD1 cortisone to cortisol conversion, competitive HTRF assay
Assay type: biochemical
Conditions: human 11-βHSD; test concentration of 30 μM of compound
Procedure: The evaluation of compounds described herein was carried out using a baculovirus expressed N terminal 6-His tagged full length human 11βHSD1 enzyme(*1). The enzyme was purified from a detergent solubilised cell lysate, using a copper chelate column. Inhibitors of 11βHSD1 reduce the conversion of cortisone to cortisol, which is identified by an increase in signal, in the above assay.
Compounds to be tested were dissolved in dimethyl sulphoxide (DMSO) to 10 mM and diluted further in assay buffer containing 1% DMSO to 10 fold the final assay concentration. Diluted compounds were then plated into black 384 well plates (Matrix, Hudson N.H., USA).
Fluorescence at 665 nm and 620 nm was measured and the 665 nm:620 nm ratio calculated using an Envision plate reader.

T1 sequence (P28845 whole entry): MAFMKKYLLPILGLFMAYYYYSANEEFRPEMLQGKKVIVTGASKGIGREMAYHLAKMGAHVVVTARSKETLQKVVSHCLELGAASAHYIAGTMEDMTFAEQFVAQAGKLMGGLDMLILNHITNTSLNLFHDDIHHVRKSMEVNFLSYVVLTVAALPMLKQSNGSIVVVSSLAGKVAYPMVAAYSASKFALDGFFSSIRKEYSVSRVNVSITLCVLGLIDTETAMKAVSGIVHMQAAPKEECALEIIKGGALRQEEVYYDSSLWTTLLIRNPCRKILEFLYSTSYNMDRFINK

Compound	inhibition at 30 µM [%]
C[C@@H]1CN(c2ncc(C(=O)N3CCC(c4cccnc4)C3)c(C3CC3)n2)C[C@H](C)O1 (stereo partly drawn) [Example 81, (4-cyclopropyl-2-((2S,6R)-2,6-dimethylmorpholino)pyrimidin-5-yl)(3-(pyridin-3-yl)pyrrolidin-1-yl)methanone]	100
CCOc1nc(NC2CC2)ncc1C(=O)N[C@H]1C2CC3CC1C[C@@](O)(C3)C2 [Example 210, 2-(cyclopropylamino)-4-ethoxy-N-[(2r,5s)-5-hydroxytricyclo[3.3.1.13,7]dec-2-yl]pyrimidine-5-carboxamide]	97.2
CN1CCN(c2ncc(C(=O)N[C@H]3C4CC5CC3C[C@@](O)(C5)C4)c(C3CCCC3)n2)CC1=O [Example 128, 4-cyclopentyl-N-[(2r,5s)-5-hydroxyadamantan-2-yl]-2-(4-methyl-3-oxopiperazin-1-yl)pyrimidine-5-carboxamide]	99.1
O=C(N[C@H]1C2CC3CC1C[C@@](O)(C3)C2)c1cnc(N2CCS(=O)(=O)CC2)nc1C1CCCC1 [Example 116, 4-Cyclopentyl-2-(1,1-dioxo-1,4-thiazinan-4-yl)-N-[(2r,5s)-5-hydroxyadamantan-2-yl]pyrimidine-5-carboxamide]	98.1
O=C(N[C@H]1C2CC3CC1C[C@@](O)(C3)C2)c1cnc(N2CCS(=O)(=O)CC2)nc1C1CCC1 [Example 83, 4-Cyclobutyl-2-(1,1-dioxo-1,4-thiazinan-4-yl)-N-[(2r,5s)-5-hydroxyadamantan-2-yl]pyrimidine-5-carboxamide]	103
CS(=O)(=O)N1CCN(c2ncc(C(=O)N[C@H]3C4CC5CC3C[C@@](O)(C5)C4)c(C3CCCC3)n2)CC1 [Example 143, 4-cyclopentyl-N-[(2r,5s)-5-hydroxyadamantan-2-yl]-2-(4-methylsulfonylpiperazin-1-yl)pyrimidine-5-carboxamide]	95
O=C(N[C@H]1C2CC3CC1C[C@@](O)(C3)C2)c1cnc(N2CCOC(CO)C2)nc1C1CCCC1 (some centres unmarked) [Example 145, 4-cyclopentyl-N-[(2r,Ss)-5-hydroxyadamantan-2-yl]-2-[2-(hydroxymethyl)morpholin-4-yl]pyrimidine-5-carboxamide]	92.9
O=C(N[C@H]1C2CC3CC1C[C@@](O)(C3)C2)c1cnc(NC2CC2)nc1[C@H]1CCCO1 [Example 170, 2-(cyclopropylamino)-N-[(2r,5s)-5-hydroxyadamantan-2-yl]-4-[(2R)-oxolan-2-yl]pyrimidine-5-carboxamide]	94.4

Second part, the molecule after the results:

inhibition at 30 µM [%]	Compound
90.3	O=C(N[C@H]1C2CC3CC1C[C@@](O)(C3)C2)c1cnc(OC2COC2)nc1C1CCC1 [Example 109, 4-cyclobutyl-N-[(2r,5s)-5-hydroxyadamantan-2-yl]-2-(oxetan-3-yloxy)pyrimidine-5-carboxamide]
105	CNc1ncc(C(=O)N[C@H]2C3CC4CC2C[C@@](O)(C4)C3)c(C2CCCO2)n1 (some centres unmarked) [Example 161, N-[(2r,5s)-5-hydroxyadamantan-2-yl]-2-methylamino-4-(oxolan-2-yl)pyrimidine-5-carboxamide]
103	CC(C)Nc1ncc(C(=O)N[C@H]2C3CC4CC2C[C@@](O)(C4)C3)c(C2CCC2)n1 [Example 94, 4-cyclobutyl-N-[(2r,5s)-5-hydroxyadamantan-2-yl]-2-(isopropylamino)pyrimidine-5-carboxamide]
93	COc1nc(NC2CCC2)ncc1C(=O)N[C@H]1C2CC3CC1C[C@@](O)(C3)C2 [Example 207, 2-(cyclobutylamino)-N-[(2r,5s)-5-hydroxytricyclo[3.3.1.13,7]dec-2-yl]-4-methoxypyrimidine-5-carboxamide]
95	CC(C)Oc1ncc(C(=O)N[C@H]2C3CC4CC2C[C@@](O)(C4)C3)c([C@@H]2CCCO2)n1 [Example 181]
90.9	O=C(N[C@H]1C2CC3CC1C[C@@](O)(C3)C2)c1cnc(OC2CCCC2)nc1C1CC1 [Example 77, 2-(cyclopentyloxy)-4-cyclopropyl-N-[(2r,5s)-5-hydroxyadamantan-2-yl]pyrimidine-5-carboxamide]
